These results are taken from US20200270232A1, “INHIBITORS OF INTEGRATED STRESS RESPONSE PATHWAY” (Praxis Biotech LLC, priority 2019, published 2020).

The test system of one test is ATF4. The experiment in a line: ATF4 expression inhibition assay (ATF4 luciferase reporter). As to conditions: Homo sapiens, HEK-293T; HEK293T cells carrying the ATF4 luciferase reporter, 100 nM thapsigargin (Tg), 3 hours; read-out: ATF4 inhbition IC50. The class given is cell-based. The protocol:
The ATF4 reporter was prepared by fusing the human full length 5′UTR of ATF4 (NCBI Accession No. BC022088.2) upstream of the firefly luciferase coding sequence lacking the initiator methionine. The fused sequence was cloned into pLenti-EF1a-C-Myc-DDK-IRES-Puro cloning vector (Origen # PS 100085) using standard methods. Virus production was carried out by using Lenti-X™ Packaging Single Shots Protocol (Clonetech #631276). Viral particles were used to transduce HEK293T cells (ATCC # CRL-3216, ATCC Manassas, Va.), which were subsequently selected with puromycin to generate stable cell line. Cells were maintained at 37° C. and 5% CO2 in DMEM-F12 (Hyclone # SH30023.02) supplemented with 10% heat-inactivated fetal bovine serum (Gibco #16000-044), 2 mM L-glutamine (Gibco #25030-081), 100 U/ml penicillin, and 100 μg/ml streptomycin (Gibco #15140-122).
HEK293T cells carrying the ATF4 luciferase reporter were plated on 96-well plates (Nunc) at 10,000 cells per well. Cells were treated two days after seeding with 100 nM thapsigargin (Tg) (Sigma-Aldrich # T9033) in the presence of different concentrations of selected compounds ranging from 1 nM to 10 μM. Cells without treatment or cells treated with Tg alone were used as controls. Assay plates containing cells were incubated for 3 hours at 37° C.
Luciferase reactions were performed using Luciferase Assay System (Promega # E1501) as specified by the manufacturer. Luminescence was read with an integration time of 1 s and a gain of 110 using a Cytation-5 multi-mode microplate reader (BioTek). Relative luminescence units were normalized to Tg treatment (0% inhibition) and untreated cells (100% inhibition) and the percentage of ATF4 inhibition was calculated.
Accordingly, inhibition of ATF4 expression as a result of the test compound indicates suppression of the ISR pathway.
For orientation: In a reporter assay the amount or activity of a reporter protein is the signal.

In test [1] the test system is Chinese hamster ovary (CHO) cells. The experiment in a line: Protein translation assay (puromycin labelling, western blot). In kind it is cell-based. As to conditions: 2 hours, media alone = 100%; for activity at 1 µM: Cricetulus griseus, unstressed CHO cells (without Tg), 1 μM test compound, read-out: % Protein synthesis relative to untreated (1 μM test compound); for % Recovery of protein synthesis (1 μM test compound): stressed CHO cells, 300 nM Tg, Tg alone = 0%. The protocol: Chinese hamster ovary (CHO) cells were maintained at 37° C. and 5% C02 in Dulbecco's Modified Eagle's Media (DMEM) supplemented with 10% fetal bovine serum, 2 mM L-glutamine, 100 U/ml penicillin, and 100 μg/ml streptomycin. After reaching 80% of confluence, cells were detached and seeded on 6 well plates in complete media, allowed to recover overnight and treated for 2 hours with 1 μM of the test compound (to assess protein synthesis levels in unstressed condition), or for 2 hours with 300 nM Tg in the presence of 1 μM of the test compound (to assess the recovery of protein synthesis in a stressed condition). Cells with Tg alone were used as controls.
After the 2 hours treatments, media were replaced by adding 10 μg/ml puromycin (Sigma Aldrich # P8833) in complete media for 30 min. Media were removed and cells were lysed with SDS-PAGE lysis buffer. Lysates were transferred to 1.5 ml tubes and sonicated for 3 min and total protein amount were quantified using BCA Protein Assay Kit (Pierce). Equal amount of protein (30 μg) was loaded on SDS-PAGE gels. Proteins were transferred onto 0.2 μm PVDF membranes (BioRad) and probed with primary antibodies diluted in Tris-buffered saline supplemented with 0.1% Tween 20 (Merck # S6996184 505) and 3% bovine serum albumin (Rockland # BSA-50).
Puromycin (12D10) (Merck # MABE343) and β-actin (Sigma Aldrich # A5441) antibodies were used as primary antibody. A HRP-conjugated secondary antibody (Rockland) was employed to detect immune-reactive bands using enhanced chemiluminescence (ECL Western Blotting Substrate, Pierce). Quantification of protein bands was done by densitometry using ImageJ software.
Percent increase of protein synthesis in unstressed cells (without Tg treatment) in the presence of media alone or certain test compounds is shown in Table 3. The percentage levels were normalized to the media alone condition, which correspond to 100% protein synthesis.
Percent recovery of protein synthesis in stressed cells (with Tg treatment) due to the test compounds at 1 μM is also shown in Table 3. The levels were normalized to the media alone and Tg alone conditions, which correspond to 100% and 0% respectively.
In general terms: A western blot detects proteins with antibodies after separation by electrophoresis.

A word on the IC50: it is the midpoint of a concentration-inhibition curve.

As to `O=C(N[C@H]1CC[C@@H](NCC(O)COc2ccc(Cl)c(F)c2)C1)c1cc2cc(Cl)ccc2o1` (stereo partly drawn) [Compound 21, 5-chloro-N-((1S,3R)-3-((3-(4-chloro-3-fluorophenoxy)-2-hydroxypropyl)amino)cyclopentyl)benzofuran-2-carboxamide], the IC50 in the test on ATF4 was greater than 1000 nM. Moreover, in test [1], the activity at 1 µM was determined as 141% and the “% Recovery of protein synthesis (1 μM test compound)” value (shortened to “% Recovery of protein synthesis”) was 54.6%.

On to `O=C(COc1ccc(Cl)c(F)c1)NC1CCN(CC(O)COc2ccc(Cl)c(F)c2)C1` (centres unmarked) [Compound 99, 2-(4-chloro-3-fluorophenoxy)-N-(1-(3-(4-chloro-3-fluorophenoxy)-2-hydroxypropyl)pyrrolidin-3-yl)acetamide], for which the IC50 with ATF4 was greater than 100 nM. Moreover, in test [1], the activity at 1 µM amounted to 67.7% and the “% Recovery of protein synthesis” value is on record as 0.00%.

For the compound `O=C(COc1ccc(Cl)c(F)c1)NCC1CCN(C(=O)c2cc3cc(Cl)ccc3o2)C1` (centres unmarked) [Compound 6, 2-(4-chloro-3-fluorophenoxy)-N-((1-(5-chlorobenzofuran-2-carbonyl)pyrrolidin-3-yl)methyl)acetamide], in the test with ATF4, the IC50 is greater than 100 nM. In test [1], the activity at 1 µM is 81.2% and the “% Recovery of protein synthesis” value turned out to be 0.00%.

On to `O=C(COc1ccc(Cl)c(F)c1)NC[C@@H]1CCN(NC(=O)c2cc3cc(Cl)ccc3o2)C1` [Compound 96, (S)-5-chloro-N-(3-((2-(4-chloro-3-fluorophenoxy)acetamido)methyl)pyrrolidin-1-yl)benzofuran-2-carboxamide], for which the half-inhibitory concentration (IC50) with ATF4 turned out to be 4.97 nM. Moreover, in test [1], the activity at 1 µM stood at 110% and the “% Recovery of protein synthesis” value is given as 24.5%.

Consider `O=C(COc1ccc(Cl)c(F)c1)N[C@@H]1CC[C@H](NC(=O)c2ccc3cc(Cl)ccc3n2)C1` [Compound 19, 6-chloro-N-((1S,3R)-3-(2-(4-chloro-3-fluorophenoxy)acetamido)cyclopentyl)quinoline-2-carboxamide], for which the IC50 in the test on ATF4 is greater than 100 nM. In addition, in test [1], the activity at 1 µM was determined as 76.1%.

As for `O=C(NC1CCN(CCCOc2ccc(Cl)c(F)c2)C1)c1ccc2cc(Cl)ccc2n1` (centres unmarked) [Compound 56, 6-chloro-N-(1-(3-(4-chloro-3-fluorophenoxy)propyl)pyrrolidin-3-yl)quinoline-2-carboxamide], the 50% inhibitory concentration (IC50) in the test on ATF4 was greater than 1000 nM. In test [1], the activity at 1 µM amounted to 100% and the “% Recovery of protein synthesis” value came out at 32.73%.

For the compound `O=C(COc1ccc(Cl)c(F)c1)NC1CCC(CNC(=O)c2ccc3cc(Cl)ccc3n2)C1` (centres unmarked) [Compound 87, 6-chloro-N-((3-(2-(4-chloro-3-fluorophenoxy)acetamido)cyclopentyl)methyl)quinoline-2-carboxamide], in the test with ATF4, the 50% inhibitory concentration (IC50) is less than 1000 nM. For the same compound, the activity at 1 µM in test [1] turned out to be 83.9%.

In the case of `O=C(COc1ccc(Cl)c(F)c1)NCC1CCC(NC(=O)COc2ccc(Cl)c(F)c2)C1` (centres unmarked) [Compound 84, 2-(4-chloro-3-fluorophenoxy)-N-((3-(2-(4-chloro-3-fluorophenoxy)acetamido)cyclopentyl)methyl)acetamide], the IC50 in the test with ATF4 is greater than 100 nM. For the same compound, the activity at 1 µM in test [1] came to 80.3%.

On to `O=C(COc1ccc(Cl)c(F)c1)NC[C@H]1CCN(NC(=O)c2cc3cc(Cl)ccc3o2)C1` [Compound 97, (R)-5-chloro-N-(3-((2-(4-chloro-3-fluorophenoxy)acetamido)methyl)pyrrolidin-1-yl)benzofuran-2-carboxamide], for which, in the test with ATF4, the IC50 was found to be 25 nM. In test [1], the activity at 1 µM worked out at 109%.

Consider `O=C(COc1ccc(Cl)c(F)c1)NCC1CCC(NCC(O)COc2ccc(Cl)c(F)c2)C1` (centres unmarked) [Compound 89, 2-(4-chloro-3-fluorophenoxy)-N-((3-((3-(4-chloro-3-fluorophenoxy)-2-hydroxypropyl)amino)cyclopentyl)methyl)acetamide], for which, in the test on ATF4, the concentration for half-maximal inhibition (IC50) is greater than 1000 nM. In test [1], the activity at 1 µM is 119% and the “% Recovery of protein synthesis” value is given as 42.5%.

For `O=C(COc1ccc(Cl)c(F)c1)N[C@H]1CC[C@H](NC(=O)c2cc3cc(Cl)ccc3o2)C1` [Compound 14, 5-chloro-N-((1S,3S)-3-(2-(4-chloro-3-fluorophenoxy)acetamido)cyclopentyl)benzofuran-2-carboxamide], the IC50 in the test on ATF4 was determined as 217 nM. Moreover, the activity at 1 µM in test [1] stood at 65.9%.

Turning to `O=C(COc1ccc(Cl)c(F)c1)N[C@H]1CC[C@H](NCC(O)COc2ccc(Cl)c(F)c2)C1` (stereo partly drawn) [Compound 20, 2-(4-chloro-3-fluorophenoxy)-N-((1S,3S)-3-((3-(4-chloro-3-fluorophenoxy)-2-hydroxypropyl)amino)cyclopentyl)acetamide], the IC50 in the test on ATF4 is greater than 100 nM. For the same compound, in test [1], the activity at 1 µM worked out at 123% and the “% Recovery of protein synthesis” value is reported as 52.5%.

With `O=C(COc1ccc(Cl)c(F)c1)NCC1CCN(C(=O)COc2ccc(Cl)c(F)c2)C1` (centres unmarked) [Compound 4, 2-(4-chloro-3-fluorophenoxy)-N-((1-(2-(4-chloro-3-fluorophenoxy)acetyl)pyrrolidin-3-yl)methyl)acetamide], in the test on ATF4, the IC50 is greater than 100 nM. The activity at 1 µM in test [1] was found to be 76.1%.

As to `O=C(NCC1CCC(NCC(O)COc2ccc(Cl)c(F)c2)C1)c1cc2cc(Cl)ccc2o1` (centres unmarked) [Compound 33, 5-chloro-N-((3-((3-(4-chloro-3-fluorophenoxy)-2-hydroxypropyl)amino)cyclopentyl)methyl)benzofuran-2-carboxamide], in the test with ATF4, the IC50 was greater than 1000 nM. Besides, in test [1], the activity at 1 µM was 147% and the “% Recovery of protein synthesis” value stood at 101.1%.

With `O=C(COc1ccc(Cl)c(F)c1)N[C@H]1CC[C@H](NC(=O)c2ccc3cc(Cl)ccc3n2)C1` [Compound 16, 6-chloro-N-((1S,3S)-3-(2-(4-chloro-3-fluorophenoxy)acetamido)cyclopentyl)quinoline-2-carboxamide], the IC50 in the test with ATF4 is 134 nM. Further, the activity at 1 µM in test [1] was determined as 95.4%.

Turning to `O=C(COc1ccc(Cl)c(F)c1)N[C@@H]1CC[C@H](NC(=O)COc2ccc(Cl)c(F)c2)C1` [Compound 15, N,N′-((1R,3S)-cyclopentane-1,3-diyl)bis(2-(4-chloro-3-fluorophenoxy)acetamide)], in the test with ATF4, the IC50 was greater than 100 nM. The activity at 1 µM in test [1] was determined as 110%.

As for `O=C(N[C@H]1CC[C@H](NCC(O)COc2ccc(Cl)c(F)c2)C1)c1cc2cc(Cl)ccc2o1` (stereo partly drawn) [Compound 18, 5-chloro-N-((1S,3S)-3-((3-(4-chloro-3-fluorophenoxy)-2-hydroxypropyl)amino)cyclopentyl)benzofuran-2-carboxamide], in the test on ATF4, the IC50 was found to be 178 nM. The activity at 1 µM in test [1] was 158%.

In the case of `O=C(COc1ccc(Cl)c(F)c1)NCC1CCC(NC(=O)c2cc3cc(Cl)ccc3o2)C1` (centres unmarked) [Compound 86, 5-chloro-N-(3-((2-(4-chloro-3-fluorophenoxy)acetamido)methyl)cyclopentyl)benzofuran-2-carboxamide], in the test with ATF4, the IC50 is less than 100 nM. Moreover, the activity at 1 µM in test [1] came to 94.2%.

Consider `O=C(COc1ccc(Cl)c(F)c1)N[C@@H]1CC[C@H](NC(=O)c2cc3cc(Cl)ccc3o2)C1` [Compound 17, 5-chloro-N-((1S,3R)-3-(2-(4-chloro-3-fluorophenoxy)acetamido)cyclopentyl)benzofuran-2-carboxamide], for which, in the test with ATF4, the IC50 stood at 102 nM. Moreover, in test [1], the activity at 1 µM is 78.4% and the “% Recovery of protein synthesis” value amounted to 22%.
